Test results taken from patent publication US9302967B2, “Substituted cathechols as inhibitors of IL-4 and IL-5 for the treatment of bronchial asthma” (Council of Scientific & Industrial Research, priority 2011, dated 2016).
Like-named read-outs stand apart in the source and are kept apart here.

What was measured:
[1] = mouse, in vivo
Method: (§1) Earlier, LD50 of ICB 14 C6 was derived from in vitro cytotoxicity assay by NRUmethod in 3T3 cells. […] For 90d sub-chronic toxicity study the highest dose selected was one-fourth of the limit dose. Four different doses of ICB14 C6 (47, 23, 12 and 0 [vehicle] mg/kg body weight) were prepared in ground nut oil daily for 5 days a week for 90d.
After 90d of oral treatment with ICB3001, 3 mice in each group were sacrificed and major organs were placed in 10% formalin to prepare histological slides. The slides were stained by haematoxylin-eosin dye.

[2] = mouse, in vivo; remark: listed apart in the source
Method: as §1
(§2) Blood samples were taken from the retro-orbital sinus on day 91 for hematological and clinical chemistry analyses. Clinical analysis included serum creatinine, serum gammaGT, serum uric acid, serum glucose, serum protein, serum bilirubin, serum GOT/AST and serum GPT/ALT. Hematology including white blood cell count was analyzed with the help of Automatic Hematology Analyzer (Medonic).
Before sacrifice, blood was drawn from the retro-orbital sinus of mice with the help of heparinised capillary tubes and hematological parameters were assessed with the help of Automatic Hematology Analyzer (Medonic CA535).

[3] = parameters: species or system mice; settings: mouse, in vivo
Method: 14 d acute oral toxicity of compound 1 of formula I was performed. Three doses were selected: 47, 23, 12 and 0 mg/kg bw (Vehicle control) of compound 1 of formula I was administered by single oral gavage using blunt ended steel canula.
Clinical biochemistry was performed using detection kit purchased from SPINREACT, SA, Spain. The blood left after the hematological studies were allowed to clot for 2 h and serum separated by centrifugation at 3000 rpm for 5 min and subsequently used for clinical biochemistry. Details of the clinical biochemistry (Table 4) and relative organ weight (Table 5) are given below.

[4] = test system: hepatocarcinoma cells; settings: cited from earlier work
[5] = test system: OVA specific IgE; experiment: OVA-specific IgE levels in sera by ELISA, OVA mouse model; type: in vivo, BALB/c mice; settings: 10 mg/kg vs OVA/OVA/VEH
Method: Mice were sensitized with 0.2 ml PBS containing 50 μg ovalbumin (OVA) (Sigma, USA) and 4 mg aluminum hydroxide in saline intraperitonially (i.p.) on days 0, 7 and 14 as shown in FIG. 1. Sham group mice were sensitized with only alum dissolved in PBS. From day 18 to 27, mice were exposed to aerosol of OVA (3%) inhalation 25 minutes daily in a Plexiglas chamber (20×20×10 cm^3). The aerosol was generated by a nebulizer (OMRON CX model) with an airflow rate of 9 L/minute. Sham group mice were challenged with PBS alone.
Compound 1 of formula I was dissolved in 50% ethanol. So 50% ethanol was used as a vehicle. Group I was alum sensitized, saline challenged and treated with vehicle (SHAM/SAL/VEH), group II was OVA sensitized, OVA challenged and treated with 50% ethanol as vehicle (OVA/OVA/VEH), group III, IV, V, VI were OVA sensitized, OVA challenged and treated with 0.05, 0.1, 5 and 10 mg/kg compound 1 of formula I. Drug was given in the volume of 10 μl orally twice per day. […]
OVA-specific IgE levels in sera were measured by enzyme linked immunosorbent assay (ELISA) as described previously with little modification (Inflam. Res. 2003, 52, 101-106). Absorbance values at 450 nm were converted to arbitrary values by multiplying with 100. IL-4 levels in lung homogenates were measured by ELISA method as per manufacturer's instructions (BD Pharmingen, USA). […]

[6] = mouse, in vivo; remark: listed apart in the source
Method: as §1, §2
The blood left after the hematological studies were allowed to clot for 2 h and serum separated by centrifugation at 3000 rpm for 5 min and subsequently used for clinical biochemistry using kits from Spinreact S.A. (Girona, Spain). Procedural details given in the technical bulletin were followed for the measurement of different serum parameters.

Structure (SMILES): C=CCc1ccc(O)c(O)c1 [Compound 1, 4-allyl-benzene-1,2-diol]
- heart histology [1]: no significant changes in the histo-architecture
- kidney histology [1]: no significant changes were observed
- liver histology [1]: no change in the structure of hepatic cells
- lung histology ([1]; 47 mg/kg): slight thickening of intercellular septum and migration of polymorphonuclear lymphocytes
- Hemoglobin, RBC and WBC counts vs normal range [2]: within the normal range
- platelet counts vs normal range [2]: below the normal range
- HGB ([2]; 12 mg/kg): 13.76 ± 0.55 g/dL
- PLT ([2]; 12 mg/kg): 272 ± 93 ×10^3/mm^3
- RBC ([2]; 12 mg/kg): 10.07 ± 0.67 ×10^6/mm^3
- WBC ([2]; 12 mg/kg): 8.66 ± 1.27 ×10^3/mm^3
- HGB ([2]; 23 mg/kg): 13.85 ± 0.35 g/dL
- PLT ([2]; 23 mg/kg): 306 ± 106 ×10^3/mm^3
- RBC ([2]; 23 mg/kg): 9.82 ± 0.014 ×10^6/mm^3
- WBC ([2]; 23 mg/kg): 10.85 ± 2.11 ×10^3/mm^3
- HGB ([2]; 47 mg/kg): 12.13 ± 0.57 g/dL
- PLT ([2]; 47 mg/kg): 319 ± 120 ×10^3/mm^3
- RBC ([2]; 47 mg/kg): 8.51 ± 0.323 ×10^6/mm^3
- WBC ([2]; 47 mg/kg): 10.16 ± 1.03 ×10^3/mm^3
- serum bilirubin vs normal range [3]: marginal rise in the serum bilirubin
- Acid phosphatase ([3]; 12 mg/kg): 2.98 ± 1.2
- Bilirubin ([3]; 12 mg/kg): 0.28 ± 0.30 mg/dL
- Glucose ([3]; 12 mg/kg): 49 ± 0.193 mg/dL
- SGOT ([3]; 12 mg/kg): 4.32 ± 1.87 U/L
- SGPT ([3]; 12 mg/kg): 8.42 ± 5.8 U/L
- Uric acid ([3]; 12 mg/kg): 5.89 ± 1.6 mg/dL
- gammaGT ([3]; 12 mg/kg): 1.78 ± 0.68 U/L
- Acid phosphatase ([3]; 23 mg/kg): 2.75 ± 0.74
- Bilirubin ([3]; 23 mg/kg): 0.19 ± 0.22 mg/dL
- Glucose ([3]; 23 mg/kg): 57 ± 0.12 mg/dL
- SGOT ([3]; 23 mg/kg): 8.64 ± 3.74 U/L
- SGPT ([3]; 23 mg/kg): 12.15 ± 5.50 U/L
- Uric acid ([3]; 23 mg/kg): 7.51 ± 4.13 mg/dL
- gammaGT ([3]; 23 mg/kg): 2.38 ± 1.19 U/L
- Acid phosphatase ([3]; 47 mg/kg): 2.06 ± 1.52
- Bilirubin ([3]; 47 mg/kg): 1.41 ± 0.3 mg/dL
- Glucose ([3]; 47 mg/kg): 58 ± 0.07 mg/dL
- SGOT ([3]; 47 mg/kg): 3.24 ± 2.91 U/L
- SGPT ([3]; 47 mg/kg): 10.8 ± 23^ U/L
- Uric acid ([3]; 47 mg/kg): 5.59 ± 2.67 mg/dL
- gammaGT ([3]; 47 mg/kg): 2.38 ± 0.97 U/L
- cell cycle arrest and apoptosis [4]: induce cell cycle arrest and apoptosis
- OVA specific IgE levels in sera [5]: significantly reduced the OVA specific IgE levels in sera
- OVA specific IgE levels in sera ([5]; listed as compound of formula I): significant reduction
- Activities of AST, ALT and gammaGT enzymes vs normal range [6]: within the normal range
- Bilirubin ([6]; 12 mg/kg): 0.91 ± 0.47 mg/dL
- Creatinine ([6]; 12 mg/kg): 1.03 ± 0.48 mg/dL
- GOT/AST ([6]; 12 mg/kg): 12.25 ± 2.18 U/L
- GPT/ALT ([6]; 12 mg/kg): 8.56 ± 3.79 U/L
- Glucose ([6]; 12 mg/kg): 79.89 ± 22.82 mg/dL
- LDH ([6]; 12 mg/kg): 175.3 ± 18 U/L
- Total protein ([6]; 12 mg/kg): 8.63 ± 1.81 g/dL
- Uric acid ([6]; 12 mg/kg): 6.05 ± 3.9 mg/dL
- gammaGT ([6]; 12 mg/kg): 12.73 ± 6.74 U/L
- Bilirubin ([6]; 23 mg/kg): 0.37 ± 012 mg/dL
- Creatinine ([6]; 23 mg/kg): 1.10 ± 0.65 mg/dL
- GOT/AST ([6]; 23 mg/kg): 13.56 ± 6.88 U/L
- GPT/ALT ([6]; 23 mg/kg): 12.84 ± 7.9 U/L
- Glucose ([6]; 23 mg/kg): 61.66 ± 13.08 mg/dL
- LDH ([6]; 23 mg/kg): 198.6 ± 27 U/L
- Total protein ([6]; 23 mg/kg): 6.52 ± 2.61 g/dL
- Uric acid ([6]; 23 mg/kg): 7.15 ± 0.62 mg/dL
- gammaGT ([6]; 23 mg/kg): 15.29 ± 5.38 U/L
- Bilirubin ([6]; 47 mg/kg): 0.54 ± 0.39 mg/dL
- Creatinine ([6]; 47 mg/kg): 1.36 ± 0.56 mg/dL
- GOT/AST ([6]; 47 mg/kg): 5.30 ± 1.55 U/L
- GPT/ALT ([6]; 47 mg/kg): 5.71 ± 9.89 U/L
- Glucose ([6]; 47 mg/kg): 86.42 ± 6.39 mg/dL
- LDH ([6]; 47 mg/kg): 210.5 ± 25 U/L
- Total protein ([6]; 47 mg/kg): 7.78 ± 1.37 g/dL
- Uric acid ([6]; 47 mg/kg): 5.59 ± 1.26 mg/dL
- gammaGT ([6]; 47 mg/kg): 15.66 ± 2.63 U/L
